Reference: patent publication US5830912A, “Derivatives of 6,8-difluoro-7-hydroxycoumarin” (Molecular Probes, Inc., priority 1996, dated 1998)
Where two headings read alike, the source gives them in different places. Each block holds one compound with its values, some of them ahead of it.

How the values were obtained:
[1] = Photobleaching during illumination in a fluorometer; format: physicochemical; settings: after 33 minutes of illumination in a fluorometer at the wavelength of maximum excitation
Experimental: | *Percent decrease in fluorescence intensity after 33 minutes of | illumination in a fluorometer at the wavelength of maximum excitation.

[2] = Quantum yield of selected dyes (Table 3); format: physicochemical
[3] = pH titration of fluorophores (pKa determination); format: physicochemical
Experimental: The dye of interest is first dissolved in a series of buffers that have each been calibrated using a pH meter. Acetate buffers are typically used in the range of pH 4-6, and phosphate buffers in the pH range 6-8. Absorption measurements are made using solutions that are approximately 10 μM in concentration, and fluorescence measurements are made using solutions that are approximately 1 μM in concentration. The absorption or emission data is then plotted versus pH to determine pKa values.

alkaline phosphatase = experiment: Fluorogenic substrate assay with alkaline phosphatase; format: biochemical; settings: pH 10.4 glycine buffer with 1 mM MgCl2, FIG. 4
Experimental: (§1) The utility of Compound 6 as a substrate for both alkaline and acid phosphatase is compared with the utility of the non-fluorinated analog, 4-methylumbelliferyl phosphate (MUP).
(§2) 1) Fluorescence yield: For an accurate comparison, the concentrations of the two substrates (initially approximately 10 mM) are matched by normalizing the absorbance of each substrate solution at 319 nm (pH 10) to a value of 0.52 (assuming the extinction coefficient of each substrate is approximately equivalent). The matched samples are then diluted 1:10 into excess enzyme buffer (10 units/mL), and the resulting fluorescence signal is recorded as a function of time (excitation 360 nm, emission 450 nm). The fluorescence yield obtained with acid phosphatase (pH 4.8, citrate buffer) is about 10 times greater when using Compound 6 than that obtained using MUP after one hour (FIG. 4). […] Using alkaline phosphatase (pH 10.4, glycine buffer with 1 mM MgCl2) the fluorescence yield obtained using Compound 6 is approximately 25% greater than that obtained using MUP (FIG. 4);

acid phosphatase = experiment: Fluorogenic substrate assay for acid phosphatase activity; format: biochemical
Experimental: as §1, §2
As above, the substrate samples are matched in concentration by normalizing absorbance values at 316 nm to a value of 0.525, then diluting 1:10.
3) Enzyme sensitivity: Serial dilutions of acid phosphatase are incubated with 50 μM of each substrate for 1 hour at pH 5, then fluorescence intensity at 460 nm is collected following 360 nm excitation.

β-galactosidase = β-galactosidase (Escherichia coli, UniProt P00722); experiment: Fluorogenic substrate assay for β-galactosidase activity; format: biochemical; settings: for Km: read-out: Km (Michaelis-Menton constant), 0.01 units β-galactosidase, FIG. 9
Chain of β-galactosidase (P00722 2-1024): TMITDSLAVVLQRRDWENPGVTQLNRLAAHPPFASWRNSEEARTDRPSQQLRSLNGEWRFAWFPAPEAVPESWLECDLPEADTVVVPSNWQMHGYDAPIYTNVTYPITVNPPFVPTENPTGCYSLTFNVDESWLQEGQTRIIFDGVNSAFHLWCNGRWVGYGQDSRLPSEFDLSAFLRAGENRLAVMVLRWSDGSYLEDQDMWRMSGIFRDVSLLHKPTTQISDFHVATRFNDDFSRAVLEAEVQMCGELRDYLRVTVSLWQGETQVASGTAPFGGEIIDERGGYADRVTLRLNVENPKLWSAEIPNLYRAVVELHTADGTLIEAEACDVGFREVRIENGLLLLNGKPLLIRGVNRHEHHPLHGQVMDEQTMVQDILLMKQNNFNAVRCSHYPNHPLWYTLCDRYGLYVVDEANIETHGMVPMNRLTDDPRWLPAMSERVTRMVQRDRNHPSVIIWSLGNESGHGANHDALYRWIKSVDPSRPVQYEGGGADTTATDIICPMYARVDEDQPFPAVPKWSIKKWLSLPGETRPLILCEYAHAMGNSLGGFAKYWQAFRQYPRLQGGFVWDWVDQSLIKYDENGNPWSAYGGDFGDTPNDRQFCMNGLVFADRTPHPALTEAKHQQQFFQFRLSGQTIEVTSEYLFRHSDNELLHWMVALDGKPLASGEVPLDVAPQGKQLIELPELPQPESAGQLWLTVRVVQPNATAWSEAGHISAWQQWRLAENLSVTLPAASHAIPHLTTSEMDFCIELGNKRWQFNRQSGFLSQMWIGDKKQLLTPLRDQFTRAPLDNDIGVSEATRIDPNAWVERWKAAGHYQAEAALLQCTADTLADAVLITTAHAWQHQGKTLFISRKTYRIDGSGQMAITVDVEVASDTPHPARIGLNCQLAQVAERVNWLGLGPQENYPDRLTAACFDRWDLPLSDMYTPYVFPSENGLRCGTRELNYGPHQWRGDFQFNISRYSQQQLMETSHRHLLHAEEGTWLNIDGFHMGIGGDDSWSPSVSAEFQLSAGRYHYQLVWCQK
Experimental: The utility of Compound 9 as a substrate for β-galactosidase is compared with the utility of the non-fluorinated analog, 4-methylumbelliferyl β-D-galactoside (MUG).
1) Fluorescence yield: For an accurate comparison, the concentrations of the two substrates (initially approximately 10 mM) are matched by normalizing the absorbance of each substrate solution at 316 nm (pH 8.3; 20 mM sodium bicarbonate) to a value of 0.5 (assuming the extinction coefficient of each substrate is approximately equivalent). The matched samples are then diluted 1:10 into β-galactosidase buffer pH 7.0, and 2 units enzyme/mL are added. The use of Compound 9 as an enzyme substrate produces an approximately 8-fold signal enhancement over the use of MUG, when the fluorescence is measured at the reaction pH. […] However, even after optimization, the signal derived using Compound 9 (at pH 7.0) is still approximately 4-fold greater than that obtained using MUG (at pH 10).
2) Km determination: In a series of experiments, increasing amounts of each substrate are incubated with 0.01 units of β-galactosidase for 1 hour. The resulting fluorescence is measured by exciting at 360 nm, and the emission is collected at 460 nm.
3) Reaction rate: The fluorescence yield is measured at high substrate concentrations (50 μM) (relative to low enzyme concentration (0.01 units/mL)) over the course of 1 hour to compare reaction rates.
4) Enzyme sensitivity: Serial dilutions of […] are incubated with 50 μM of each substrate for 1 hour at pH 7, then fluorescence intensity at 460 nm is collected (following 360 nm excitation).

[4] = 1 hour, excitation 360 nm, emission 460 nm

SMILES: O=c1cc(C(F)(F)F)c2ccc(O)cc2o1
- Photobleaching: percent decrease in fluorescence intensity [1]: 31%
- Quantum Yield (pH 9) [2]: 0.34
- pKa [3]: 7.3

SMILES: Cc1cc(=O)oc2cc(O)ccc12 [7-hydroxy-4-methylcoumarin]
- Photobleaching: percent decrease in fluorescence intensity [1]: 22%
- Quantum Yield (pH 9) [2]: 0.63
- pKa [3]: 7.9
- pKa ([3]; stated in Example 47 for the product of MUG deglycosylation): 7.8

SMILES: Cc1cc(=O)oc2c(F)c(O)c(F)cc12 [Compound 4, 6,8-difluoro-7-hydroxy-4-methylcoumarin]
- Photobleaching: percent decrease in fluorescence intensity [1]: 5%
- Quantum Yield (pH 9) [2]: 0.89
- pKa ([3]; Table 3): 4.7

SMILES: Cc1cc(=O)oc2c(F)c(OP(=O)(O)O)c(F)cc12 [Compound 6, 6,8-difluoro-7-hydroxy-4-methylcoumarin phosphate, free acid]
- Fluorescence yield, increase over MUP (alkaline phosphatase): approximately 25%
- Enzyme concentration detection threshold, fold lower than with MUP (acid phosphatase; acid phosphatase 0.00001 to 10 units/mL, 50 μM substrate, 1 hour, pH 5, FIGS. 6 and 7): approximately 10 fold
- Initial reaction rate of hydrolysis compared with MUP (acid phosphatase; acid phosphatase 0.01 units/mL, large excess of substrate, pH 4.8 citrate buffer, FIG. 5): significantly higher
- Fluorescence signal relative to MUP after raising both reaction solutions to pH 10 (acid phosphatase; acid phosphatase reaction at pH 4.8, then raised to pH 10): twice as large
- Sensitivity to enzyme concentration compared with MUP after raising the pH to 10 (acid phosphatase; acid phosphatase, 50 μM substrate, 1 hour at pH 5, then pH 10): approximately twice as sensitive
- Fluorescence yield relative to MUP (acid phosphatase; acid phosphatase, pH 4.8 citrate buffer, after one hour, excitation 360 nm, emission 450 nm, FIG. 4): approximately 10 times

SMILES: Cc1cc(=O)oc2c(F)c(O[C@@H]3O[C@H](CO)[C@H](O)[C@H](O)[C@H]3O)c(F)cc12 [Compound 9, 6,8-difluoro-7-hydroxy-4-methylcoumarin, β-D-galactopyranoside]
- Reaction rate with β-galactosidase compared with MUG (β-galactosidase; 50 μM substrate, 0.01 units/mL enzyme, 1 hour, FIG. 10): react more rapidly
- Enzyme concentration detection threshold, fold lower than with MUG (β-galactosidase; 50 μM substrate, 1 hour, pH 7, FIG. 11): approximately 10 fold
- Km (β-galactosidase; [4]): ~25 µM
- Fluorescence signal enhancement over MUG at the reaction pH (β-galactosidase; β-galactosidase 2 units/mL, pH 7.0, emission 460 nm, excitation 360 nm, FIG. 8): approximately 8 fold
- Fluorescence signal (at pH 7.0) relative to MUG optimized at pH 10 (β-galactosidase; β-galactosidase 2 units/mL, MUG reaction raised to pH 10 with NaOH): approximately 4 fold

SMILES: Cc1cc(=O)oc2cc(O[C@@H]3O[C@H](CO)[C@H](O)[C@H](O)[C@H]3O)ccc12 [MUG, 4-methylumbelliferyl β-D-galactoside]
- Km (β-galactosidase; [4]): ~60 µM

The next lines start with the values.

- Photobleaching: percent decrease in fluorescence intensity [1]: 20%
- Quantum Yield (pH 9) [2]: 0.64
- pKa [3]: 6.4
SMILES: Cc1cc(=O)oc2cc(O)c(F)cc12

- Photobleaching: percent decrease in fluorescence intensity [1]: 12%
- Quantum Yield (pH 9) [2]: 0.78
- pKa [3]: 5.9
SMILES: Cc1cc(=O)oc2cc(O)cc(F)c12

- Quantum Yield (pH 9) [2]: 0.54
- pKa [3]: 4.2
SMILES: Cc1cc(=O)oc2c(F)c(O)c(F)c(F)c12

- Photobleaching: percent decrease in fluorescence intensity [1]: 18%
- Quantum Yield (pH 9) [2]: 0.44
- pKa [3]: 5.7
SMILES: O=c1cc(C(F)(F)F)c2cc(F)c(O)cc2o1

- pKa [3]: ~ 7.4
SMILES: Cc1c(CC(=O)O)c(=O)oc2cc(O)ccc12 [7-hydroxy-4-methylcoumarin-3-acetic acid]

- pKa [3]: ~ 6.2
SMILES: Cc1c(CC(=O)O)c(=O)oc2c(F)c(O)c(F)cc12 [Compound 11, 6,8-difluoro-7-hydroxy-4-methylcoumarin-3-acetic acid]

- pKa [3]: 5.0
SMILES: O=c1oc2c(F)c(O)c(F)cc2cc1-c1nc2ccccc2s1 [Compound 17, 3-benzothiazolyl-6,8-difluoro-7-hydroxycoumarin]

- Photobleaching: percent decrease in fluorescence intensity [1]: 7%
- Quantum Yield (pH 9) [2]: 0.23
- pKa [3]: 4.0
SMILES: O=c1cc(C(F)(F)F)c2cc(F)c(O)c(F)c2o1 [Compound 20, 6,8-difluoro-7-hydroxy-4-trifluoromethylcoumarin]
